This is an account of results in BindingDB's records for PubMed 36846363 (Al-Ahliyya Amman University, 2023).

The nature of the test: Antagonist activity at P2Y12 receptor in human blood platelets assessed as inhibition of ADP-induced platelet aggregation compound preincubated with blood for 5 mins prior to ADP addition by electrode aggregometry assay.
Take `O=C(CCC(=O)Nc1ccc2[nH]c3ccccc3c(=O)c2c1)Nc1ccc2[nH]c3ccccc3c(=O)c2c1`: the IC50 was determined as 6.49 µM. As to `O=C(CCCCCCCC(=O)Nc1ccc2[nH]c3ccccc3c(=O)c2c1)Nc1ccc2[nH]c3ccccc3c(=O)c2c1`, the IC50 was 35 µM.

As to `CCOC(=O)c1cc(NC(=O)c2cc(NC(=O)c3cc(NC(=O)c4c(-c5ccccc5)noc4C)cn3C)cn2C)cn1C`, the IC50 came out at 4.2 µM.
